In ChEMBL document CHEMBL1150740, “Studies on inhibitors of skin-tumor promotion, I. Inhibitory effects of triterpenes from Euptelea polyandra on Epstein-Barr virus activation” (J Nat Prod, 1987):

How the values were obtained:
Format in all cases: cell-based
Raji [1] = experiment: Inhibition of TPA-induced EBV-early antigen activation in human Raji cells assessed as early antigen activation at 5000 mol ratio after 48 hrs relative to TPA; set-up: scale not given: the % may be the effect or the level left; settings: human gammaherpesvirus 4
Raji [2] = experiment: Inhibition of TPA-induced EBV-early antigen activation in human Raji cells assessed as early antigen activation at 1000 mol ratio after 48 hrs relative to TPA; set-up: scale not given: the % may be the effect or the level left; settings: human gammaherpesvirus 4
Raji [3] = experiment: Inhibition of TPA-induced EBV-early antigen activation in human Raji cells assessed as early antigen activation at 100 mol ratio after 48 hrs relative to TPA; settings: human gammaherpesvirus 4
Raji [4] = experiment: Inhibition of TPA-induced EBV-early antigen activation in human Raji cells assessed as early antigen activation at 10 mol ratio after 48 hrs relative to TPA; settings: human gammaherpesvirus 4
Raji [5] = experiment: Inhibition of EBV-early antigen activation in human Raji cells assessed as early antigen activation at 1 uM ratio after 48 hrs; set-up: scale not given: the % may be the effect or the level left
[6] = Cytotoxicity against human Raji cells assessed as cell viability at 5000 mol ratio after 48 hrs relative to TPA; settings: read-out: Activity
[7] = Cytotoxicity against human Raji cells assessed as cell viability at 1000 mol ratio after 48 hrs relative to TPA; settings: read-out: Activity
[8] = Cytotoxicity against human Raji cells assessed as cell viability at 100 mol ratio after 48 hrs relative to TPA; settings: read-out: Activity
[9] = Cytotoxicity against human Raji cells assessed as cell viability at 10 mol ratio after 48 hrs relative to TPA; settings: read-out: Activity

Row | Compound | Activity (Raji [1]) [%] | Activity (Raji [2]) [%] | EBV early antigen activation relative to TPA (Raji [3]) [%] | EBV-EA activation relative to TPA (Raji [4]) [%] | Activity (Raji [5]) [%] | viability at 48 h, 5000 mol ratio relative to TPA [6] [%] | viability at 48 h, 1000 mol ratio relative to TPA [7] [%] | viability at 48 h, 100 mol ratio relative to TPA [8] [%] | viability at 48 h, 10 mol ratio relative to TPA [9] [%]
1 | C=C(C)[C@@H]1CC[C@]2(C(=O)O)CC[C@]3(C)[C@H](CC[C@@H]4[C@@]5(C)CC[C@H](OC(C)=O)C(C)(C)[C@@H]5CC[C@]43C)[C@@H]12 | 0 | 0 | 55.1 | 100 | 0 | 80 | 80 | 80 | 100
2 | CC1(C)CC[C@]2(C)CC[C@]3(C)C(=CC[C@@H]4[C@@]5(C)C(=O)CC(=O)C(C)(C)[C@@H]5CC[C@]43C)[C@@H]2C1 | 0 | 0 | 100 | 100 | 0 | 0 | 20 | 100 | 100
3 | CC(=O)O[C@H]1CC[C@]2(C)[C@H]3CC=C4[C@@H]5CC(C)(C)CC[C@]5(CO)CC[C@@]4(C)[C@]3(C)CC[C@H]2C1(C)C | 0 | 32.3 | 59.4 | 100 | 0 | 40 | 70 | > 80 | 100
4 | CC(=O)O[C@H]1CC[C@]2(C)[C@H]3CC=C4[C@@H]5CC(C)(C)CC[C@]5(C=O)CC[C@@]4(C)[C@]3(C)CC[C@H]2C1(C)C | 0 | 100 | 100 | 100 | 0 | 40 | 100 | 100 | 100
5 | CC(=O)OC[C@]12CCC(C)(C)C[C@H]1C1=CC[C@@H]3[C@@]4(C)CC[C@H](OC(C)=O)C(C)(C)[C@@H]4CC[C@@]3(C)[C@]1(C)CC2 | 0 | 100 | 100 | 100 | 0 | 50 | 100 | 100 | 100
6 | CC(=O)O[C@@H]1C[C@]2(C)[C@H]3CC=C4[C@@H]5CC(C)(C)CC[C@]5(C(=O)O)CC[C@@]4(C)[C@]3(C)CC[C@H]2C(C)(C)[C@H]1OC(C)=O | 0 | 0 | 59.6 | 100 | 0 | 0 | 20 | 70 | 100
7 | CC(=O)O[C@H]1CC[C@]2(C)[C@H]3CC=C4[C@@H]5CC(C)(C)CC[C@]5(C(=O)O)CC[C@@]4(C)[C@]3(C)CC[C@H]2C1(C)C [ACETYL OLEANOLIC ACID] | 0 | 36.4 | 100 | 100 | 1.6 | 50 | 80 | 100 | 100
8 | C=C(C)[C@@H]1CC[C@]2(C(=O)O)CC[C@]3(C)[C@H](CC[C@@H]4[C@@]5(C)CC[C@H](O)C(C)(C)[C@@H]5CC[C@]43C)[C@@H]12 [BETULINIC ACID] | 0 | 80 | 100 | – | 0 | 20 | > 80 | 100 | 100
9 | C=C(C)[C@@H]1CC[C@]2(CO)CC[C@]3(C)[C@H](CC[C@@H]4[C@@]5(C)CC[C@H](O)C(C)(C)[C@@H]5CC[C@]43C)[C@@H]12 [BETULIN] | 0 | 100 | 100 | 100 | 1.6 | 80 | 100 | 100 | 100
10 | CC1(C)CC[C@]2(CO)CC[C@]3(C)C(=CC[C@@H]4[C@@]5(C)CC[C@H](O)C(C)(C)[C@@H]5CC[C@]43C)[C@@H]2C1 [ERYTHRODIOL] | 0 | 19.3 | 71.7 | 100 | 0 | 10 | 50 | > 80 | 100
11 | C=C(C)[C@@H]1CC[C@]2(C)CC[C@]3(C)[C@H](CC[C@@H]4[C@@]5(C)CC[C@H](OC(C)=O)C(C)(C)[C@@H]5CC[C@]43C)[C@@H]12 [LUPENYL ACETATE] | 0 | 81.8 | 100 | 100 | 0 | 60 | 80 | 100 | 100
12 | COC(=O)[C@]12CCC(C)(C)C[C@H]1C1=CC[C@@H]3[C@@]4(C)C[C@@H](O)[C@H](O)C(C)(C)[C@@H]4CC[C@@]3(C)[C@]1(C)CC2 [MASLINIC ACID METHYL ESTER] | 0 | 65.6 | 100 | 100 | 0 | 0 | 80 | 100 | 100
13 | CC1(C)CC[C@]2(C(=O)O)CC[C@]3(C)C(=CC[C@@H]4[C@@]5(C)C[C@@H](O)[C@H](O)C(C)(C)[C@@H]5CC[C@]43C)[C@@H]2C1 [MASLINIC ACID] | 0 | 0 | 65.6 | 100 | 0 | 0 | 0 | 70 | 100
14 | C=C(C)[C@@H]1CC[C@]2(C(=O)OC)CC[C@]3(C)[C@H](CC[C@@H]4[C@@]5(C)CC[C@H](O)C(C)(C)[C@@H]5CC[C@]43C)[C@@H]12 [METHYL BETULINATE] | 0 | 71.5 | 100 | 100 | 0 | 80 | > 80 | 100 | 100
15 | COC(=O)[C@]12CCC(C)(C)C[C@H]1C1=CC[C@@H]3[C@@]4(C)CC[C@H](O)C(C)(C)[C@@H]4CC[C@@]3(C)[C@]1(C)CC2 [METHYL OLEANOLATE] | 0 | 29.5 | 46.3 | 100 | 0 | 0 | 50 | 80 | 100
16 | CC1(C)CC[C@]2(C(=O)O)CC[C@]3(C)C(=CC[C@@H]4[C@@]5(C)CC[C@H](O)C(C)(C)[C@@H]5CC[C@]43C)[C@@H]2C1 [OLEANOLIC_ACID] | 0 | 30 | 80 | 100 | 2.3 | 20 | 60 | > 80 | 100
